# Test results published in patent US9650616B2, “Methods for increasing grain yield” (University of Florida Research Foundation, Inc., priority 2014, dated 2017).
# Where a chain is given by its changes, count along the chain named.
# Tests used:
# [1] = molecular target: T1, maize endosperm AGPase, large subunit variant GGR (Q96G, D161G, A443R; numbering of SEQ ID NO: 20) (Zea mays, UniProt P55241+Q84PF5, A443R/D161G/Q96G); assay: Pi inhibition in the presence of 3-PGA, GGR; assay type: biochemical; settings: read-out: Km (ATP), presence of 3-PGA, ATP varied, Pi inhibition, L-MT
# T1 sequence (P55241 46-516 A443R/D161G/Q96G): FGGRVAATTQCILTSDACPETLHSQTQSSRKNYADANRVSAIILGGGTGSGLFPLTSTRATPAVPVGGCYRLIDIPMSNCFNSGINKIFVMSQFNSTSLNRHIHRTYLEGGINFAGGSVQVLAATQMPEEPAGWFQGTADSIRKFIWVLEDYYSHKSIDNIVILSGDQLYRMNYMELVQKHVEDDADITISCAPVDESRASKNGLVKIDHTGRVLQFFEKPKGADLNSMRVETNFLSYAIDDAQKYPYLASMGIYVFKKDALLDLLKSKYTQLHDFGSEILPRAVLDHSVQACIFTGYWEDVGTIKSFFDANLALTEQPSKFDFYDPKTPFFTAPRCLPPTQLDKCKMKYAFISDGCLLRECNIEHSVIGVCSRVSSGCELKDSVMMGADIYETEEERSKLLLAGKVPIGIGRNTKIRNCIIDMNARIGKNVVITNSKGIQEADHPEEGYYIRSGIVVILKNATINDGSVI
# T1 sequence (Q84PF5 1-474): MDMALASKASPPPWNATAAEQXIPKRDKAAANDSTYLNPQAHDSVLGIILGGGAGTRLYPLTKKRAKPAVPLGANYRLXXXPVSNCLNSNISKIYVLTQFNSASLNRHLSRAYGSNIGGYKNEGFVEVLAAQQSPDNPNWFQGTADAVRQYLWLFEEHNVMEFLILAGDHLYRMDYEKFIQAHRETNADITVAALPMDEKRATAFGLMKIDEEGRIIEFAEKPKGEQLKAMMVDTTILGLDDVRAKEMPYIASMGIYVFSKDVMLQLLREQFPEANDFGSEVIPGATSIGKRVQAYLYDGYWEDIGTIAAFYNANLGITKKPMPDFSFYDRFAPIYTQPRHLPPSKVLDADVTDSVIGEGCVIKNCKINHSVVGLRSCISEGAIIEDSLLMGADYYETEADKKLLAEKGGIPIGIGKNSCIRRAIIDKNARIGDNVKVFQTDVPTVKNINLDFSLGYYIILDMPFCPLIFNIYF
# Text: Inhibition by Pi was then followed in the presence of the activator 3-PGA.
# [2] = molecular target: T2, maize endosperm AGPase variant T142F (Zea mays, UniProt P55241+Q84PF5, T142F); assay: Apparent kinetic constants with 3-PGA, 37° C., T142F; assay type: biochemical; settings: read-out: ATP Km, with 3-PGA, 37° C.
# T2 construct: data of Boehlein et al., 2013
# T2 sequence (P55241 46-516 T142F): T1 sequence (P55241 46-516 A443R/D161G/Q96G) with G51Q, T97F, G116D, R398A
# T2 sequence (Q84PF5 1-474): T1 sequence (Q84PF5 1-474)
# Experimental: An endpoint assay was used to determine the rate of the AGPase reaction by coupling the formation of PPi to a decrease in NADH concentration (Boehlein et al., 2008). […] The Michaelis constants (Km) were obtained by varying one substrate in the presence of saturating concentrations of the second substrate. The activation constants were obtained by varying the activator at fixed levels of both substrates. All reactions were performed at 37° C. and mixes were prewarmed before starting the reaction with enzyme. […] The absorbance at 340 nm was monitored after 30 min and the amount of PPi produced was determined from a standard curve using PPi in complete reaction mixtures lacking AGPase. Blank samples contained complete reaction mixtures without enzyme and the change in absorbance between the blank and the reaction was used to calculate the amount of PPi produced. […]
# The apparent Michaelis constant and maximum velocity of each reaction was calculated from a V vs. S plots using nonlinear regression analysis and the following equation, v=VmaxS/(Km+S), where v is the measured velocity, Vmax is the maximum velocity, S is the substrate concentration. […]
# Each mutant, comprising 1, 2, 3 or 4 changes, was grown in a large scale culture, expressed and purified according to standard procedures (Boehlein et al., 2005). […] Next, the activation constant, Ka, was determined for each of the mutant enzymes. […]
smiles,measurement,setting,value
Nc1ncnc2c1ncn2[C@@H]1O[C@H](COP(=O)(O)OP(=O)(O)OP(=O)(O)O)[C@@H](O)[C@H]1O [ATP],Km,[1],110 µM
same,Km,[2],200 µM
